Publication PMC11904993, “Humanized Candida and NanoBiT Assays Expedite Discovery of Bdf1 Bromodomain Inhibitors With Antifungal Potential” (Advanced Science, 2025)
“And” between values parts separate entries of the source, which are not always exact repeats. Identical values can stand only once. Like-named read-outs stand apart in the source and are kept apart here.

Tests used:
[1] = test system: C. glabrata strains expressing WT and mutant Bdf1; assay: Growth inhibition in liquid media, C. glabrata lab strains; settings: for %Growth: WT BDF1-flag
Description: (§1) Growth on Liquid Media with C. glabrata Lab Strains: Cells were grown at 30 °C in SC+M+C‐U medium (SC medium with 5 mM methionine, 0.25 mM cysteine, without uracil) to an OD600 of 0.5–0.8. […] Plates were incubated at 30 °C and OD600 was measured using a Multiskan FC Microplate Photometer (Thermo Fisher).

Bmh1/Bmh2 = assay: NanoBiT assay, control pair; type: cell-based, S. cerevisiae; parameters: Normalized nanoBiT signal: unit of the concentration uncertain
Description: Yeast strains were distributed in 96‐well microplates containing SC(MSG)‐U medium (SC‐U medium with 0.1% monosodium glutamate instead of ammonium sulfate as a nitrogen source) and grown at 30 °C. 40 µL of exponentially growing cells were transferred in white 96‐well half‐area microplates (ProxiPlate Plus, Greiner Bio‐One) previously filled with 40 µL per well of SC(MSG) containing 100 µM furimazine. The microplates were then incubated for 10 min in the dark before the luminescence signals were recorded using a microplate reader (Ensight, PerkinElmer). Luminescence measurements were performed for 1 s per well at a distance of 0.1 mm between the plate and the detector. The luminescence values were normalized with the optical density (OD600) of the corresponding cultures. For NanoBiT assays with BET inhibitors, yeast cultures were grown overnight at 30 °C in SC(MSG) medium in the presence of serial dilutions of 24c and I‐BET726. Overnight cultures were diluted 5 fold in SC(MSG) and incubated for 1 h before luminescence was recorded as previously indicated. Luminescence values for each condition were normalized using the average of the luminescence recorded for the Bdf1/Swc4 and Bmh1/Bmh2 controls.

C. auris Bdf1 BD1 = C. auris Bdf1 BD1 (Candidozyma auris (Candida auris), UniProt A0AAW0VEM6); assay: HTRF assay, inhibition of H4ac4 peptide binding
[2] = test system: humanized C. albicans strains (both Bdf1 BDs replaced by Brd4 BDs); assay: Growth in liquid media, humanized C. albicans; type: cell-based; settings: Candida albicans, read-out: EC50 (μM), C. albicans (hum)
Description: Strains were presented in Table S8 (Supporting Information). Cells from a single colony were diluted in 0.85% NaCl before being counted using a Neubauer chamber. They were diluted to a final concentration of 6500 cells mL^−1 per well for all clinical strains of C. albicans and C. glabrata; 65 000 cells mL^−1 per well for C. auris; 13 500 cells mL^−1 per well for C. parapsilosis; 3375 cells mL^−1 per well for C. krusei and 1687.5 cells mL^−1 per well for C. tropicalis, in a sterile 96‐well plate. Cells were then grown in SC medium with or without chemical compounds at 30 °C with regular shaking. The significance of growth defects was assessed using Holm‐Sidak method by GraphPad Prism 10.

[3] = test system: C. glabrata expressing humanized Bdf1 (Brd4 BDs); assay: Growth inhibition in liquid media, humanized C. glabrata strains; settings: for EC50: Nakaseomyces glabratus
Description: as §1

C. auris Bdf1 BD2 = C. auris Bdf1 BD2 (Candidozyma auris (Candida auris), UniProt A0AAW0VEM6); assay: HTRF assay, inhibition of H4ac4 peptide binding
[4] = read-out: HTRF signal, normalized (Figure 5A data)

Chain of C. auris Bdf1 BD2 (A0AAW0VEM6 entry or part of it): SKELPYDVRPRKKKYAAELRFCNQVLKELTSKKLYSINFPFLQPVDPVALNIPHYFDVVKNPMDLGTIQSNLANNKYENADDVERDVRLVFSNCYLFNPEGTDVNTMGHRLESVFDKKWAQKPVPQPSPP
Chain of C. auris Bdf1 BD1 (A0AAW0VEM6 entry or part of it): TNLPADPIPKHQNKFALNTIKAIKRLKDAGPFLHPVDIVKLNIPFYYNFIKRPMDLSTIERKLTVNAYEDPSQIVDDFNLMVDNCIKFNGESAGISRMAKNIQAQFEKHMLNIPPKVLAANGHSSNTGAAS

SMILES: CC(=O)N1c2ccc(-c3ccc(C(=O)O)cc3)cc2C(Nc2ccc(Cl)cc2)CC1C (stereo not shown) [I-BET726]
- %Growth ([1]; Fig 3E, 50 µM, Exp 1-3): 24% and 29% and 27%
- %Growth ([1]; Fig 3F, 0.0412 µM): 86.79% and 92.92% and 93.05%
- %Growth ([1]; Fig 3F, 0.1235 µM): 78.65% and 90.9% and 90.48%
- %Growth ([1]; Fig 3F, 0.3704 µM): 70.78% and 76.63% and 84.08%
- %Growth ([1]; Fig 3F, 1.1111 µM): 65.69% and 73.22% and 70.81%
- %Growth ([1]; Fig 3F, 3.3333 µM): 37.23% and 49.84% and 57.55%
- %Growth ([1]; Fig 3F, 10 µM): 20.2% and 22.05% and 23.51%
- EC50 ([1]; Nakaseomyces glabratus, read-out: EC50 (μM) growth inhibition, Fig 3F, strain BDF1-FLAG (WT Bdf1)): 3.24 ± 0.75 µM
- EC50 ([1]; Nakaseomyces glabratus, read-out: EC50 (μM) growth inhibition, strain bdf1-Y166F (active BD: BD2)): 1.98 ± 0.36 µM
- EC50 ([1]; Nakaseomyces glabratus, read-out: EC50 (μM) growth inhibition, strain bdf1-Y343F (active BD: BD1)): ~25 µM
- EC50 ([1]; Nakaseomyces glabratus, read-out: EC50 (μM) growth inhibition, strain bdf1-bd1Δ (active BD: BD2)): 1.17 ± 0.1 µM
- EC50 ([1]; Nakaseomyces glabratus, read-out: EC50 (μM) growth inhibition, strain bdf1-bd2Δ (active BD: BD1)): 13.7 ± 4.9 µM
- Growth (%) ([1]; WT BDF1, 20 µM, Fig 5B): 34%
- EC50 ([1]; read-out: EC50 (μM) growth inhibition, Fig 3F, strain BDF1-FLAG (WT Bdf1)): 3 µM and 3.2 µM
- Normalized nanoBiT signal (Bmh1/Bmh2): 108% and 107% and 96% and 97%
- Normalized nanoBiT signal (Bmh1/Bmh2; Bmh1-LgBiT, Bmh2-SmBiT, 0.02441 (unit uncertain), Fig 4C): 104% and 103% and 105% and 97%
- Normalized nanoBiT signal (Bmh1/Bmh2; Bmh1-LgBiT, Bmh2-SmBiT, 0.09766 (unit uncertain), Fig 4C): 105% and 106% and 103% and 100%
- Normalized nanoBiT signal (Bmh1/Bmh2; Bmh1-LgBiT, Bmh2-SmBiT, 0.19531 (unit uncertain), Fig 4C): 105% and 94% and 98%
- Normalized nanoBiT signal (Bmh1/Bmh2; Bmh1-LgBiT, Bmh2-SmBiT, 0.39063 (unit uncertain), Fig 4C): 110% and 103% and 98% and 96%
- Normalized nanoBiT signal (Bmh1/Bmh2; Bmh1-LgBiT, Bmh2-SmBiT, 0.78125 (unit uncertain), Fig 4C): 109% and 110% and 93% and 102%
- Normalized nanoBiT signal (Bmh1/Bmh2; Bmh1-LgBiT, Bmh2-SmBiT, 1.56250 (unit uncertain), Fig 4C): 115% and 111% and 95% and 99%
- Normalized nanoBiT signal (Bmh1/Bmh2; Bmh1-LgBiT, Bmh2-SmBiT, 3.12500 (unit uncertain), Fig 4C): 112% and 118% and 104% and 101%
- inhibition of NanoBiT signal, Bmh1/Bmh2 (Bmh1/Bmh2; unrelated control pair): not observed
- remaining activity at 0.0021 µM (C. auris Bdf1 BD1; CauBD1, 2.10 nM, read-out: HTRF signal, normalized (Figure 5A data)): 105%
- remaining activity at 0.01311 µM (C. auris Bdf1 BD1; CauBD1, 13.11 nM, read-out: HTRF signal, normalized (Figure 5A data)): 103%
- remaining activity at 0.03277 µM (C. auris Bdf1 BD1; CauBD1, 32.77 nM, read-out: HTRF signal, normalized (Figure 5A data)): 106%
- remaining activity at 0.2048 µM (C. auris Bdf1 BD1; CauBD1, 204.8 nM, read-out: HTRF signal, normalized (Figure 5A data)): 107%
- remaining activity at 1.28 µM (C. auris Bdf1 BD1; CauBD1, 1280 nM, read-out: HTRF signal, normalized (Figure 5A data)): 100%
- remaining activity at 3.2 µM (C. auris Bdf1 BD1; CauBD1, 3200 nM, read-out: HTRF signal, normalized (Figure 5A data)): 74.9%
- remaining activity at 8 µM (C. auris Bdf1 BD1; CauBD1, 8000 nM, read-out: HTRF signal, normalized (Figure 5A data)): 34.7%
- IC50 (C. auris Bdf1 BD1; Fig 5A, four replicates, read-out: IC50 (μM) BD1, C. aur. Bdf1): 14.7 ± 0.1 µM
- remaining activity at 0.00524 µM (C. auris Bdf1 BD1; [4]): 103%
- remaining activity at 0.512 µM (C. auris Bdf1 BD1; [4]): 103%
- EC50 [2]: 0.035 ± 0.003 µM
- %Growth ([3]; Fig 3E, 50 µM, BDF1-hBD1-flag, Exp 1-3): 2.33% and 1.84% and 1.76%
- %Growth ([3]; Fig 3E, 50 µM, BDF1-hBD2-flag, Exp 1-3): 3.8% and 4.25% and 4%
- %Growth ([3]; Fig 3E, 50 µM, humanized BDF1-flag, Exp 1-3): 0.38% and 2.64% and 0.389%
- %Growth ([3]; Fig 3F, BDF1-hBD1-flag, 0.0137 µM): 90.66% and 83.58% and 76.59%
- %Growth ([3]; Fig 3F, BDF1-hBD1-flag, 0.0412 µM): 77.41% and 78.96% and 63.08%
- %Growth ([3]; Fig 3F, BDF1-hBD1-flag, 0.1235 µM): 61.07% and 68.69% and 57.31%
- %Growth ([3]; Fig 3F, BDF1-hBD1-flag, 0.3704 µM): 41.42% and 40.29% and 42%
- %Growth ([3]; Fig 3F, BDF1-hBD1-flag, 1.1111 µM): 16.57% and 19.25% and 16.52%
- %Growth ([3]; Fig 3F, BDF1-hBD1-flag, 3.3333 µM): 5.27% and 7.44% and 4.82%
- %Growth ([3]; Fig 3F, BDF1-hBD2-flag, 0.0137 µM): 47.68% and 58.64% and 43.37%
- %Growth ([3]; Fig 3F, BDF1-hBD2-flag, 0.0412 µM): 32.5% and 27.54% and 41.03%
- %Growth ([3]; Fig 3F, BDF1-hBD2-flag, 0.1235 µM): 16.07% and 15.16% and 20.65%
- %Growth ([3]; Fig 3F, BDF1-hBD2-flag, 0.3704 µM): 9.64% and 8.03% and 12.17%
- %Growth ([3]; Fig 3F, BDF1-hBD2-flag, 1.1111 µM): 6.25% and 6.02% and 7.12%
- %Growth ([3]; Fig 3F, BDF1-hBD2-flag, 3.3333 µM): 4.46% and 5.24% and 6.4%
- %Growth ([3]; Fig 3F, humanized BDF1-flag, 0.0137 µM): 42.92% and 50.6% and 44.95%
- %Growth ([3]; Fig 3F, humanized BDF1-flag, 0.0412 µM): 25.63% and 22.37% and 34.68%
- %Growth ([3]; Fig 3F, humanized BDF1-flag, 0.1235 µM): 13.13% and 10.59% and 17.61%
- %Growth ([3]; Fig 3F, humanized BDF1-flag, 0.3704 µM): 5.63% and 5.85% and 8.26%
- %Growth ([3]; Fig 3F, humanized BDF1-flag, 1.1111 µM): 2.92% and 3.13% and 4.77%
- %Growth ([3]; Fig 3F, humanized BDF1-flag, 3.3333 µM): 1.04% and 1.36% and 2.75%
- EC50 ([3]; read-out: EC50 (μM) growth inhibition, Fig 3F, strain bdf1-hBD1-FLAG): 0.25 ± 0.03 µM
- EC50 ([3]; read-out: EC50 (μM) growth inhibition, Fig 3F, strain bdf1-hBD2-FLAG): 0.019 ± 0.002 µM
- EC50 ([3]; read-out: EC50 (μM), C. glabrata (hum), Fig 5C, both BDs humanized): 0.043 ± 0.024 µM
- EC50 ([3]; read-out: EC50 growth inhibition, strain expressing humanized Bdf1): 0.014 µM
- remaining activity at 0.0021 µM (C. auris Bdf1 BD2; CauBD2, 2.10 nM, read-out: HTRF signal, normalized (Figure 5A data)): 97.4%
- remaining activity at 0.01311 µM (C. auris Bdf1 BD2; CauBD2, 13.11 nM, read-out: HTRF signal, normalized (Figure 5A data)): 85.4%
- remaining activity at 0.03277 µM (C. auris Bdf1 BD2; CauBD2, 32.77 nM, read-out: HTRF signal, normalized (Figure 5A data)): 75%
- remaining activity at 0.08192 µM (C. auris Bdf1 BD2; CauBD2, 81.92 nM, read-out: HTRF signal, normalized (Figure 5A data)): 52.6%
- remaining activity at 0.2048 µM (C. auris Bdf1 BD2; CauBD2, 204.8 nM, read-out: HTRF signal, normalized (Figure 5A data)): 31%
- remaining activity at 0.512 µM (C. auris Bdf1 BD2; CauBD2, 512 nM, read-out: HTRF signal, normalized (Figure 5A data)): 12.9%
- remaining activity at 3.2 µM (C. auris Bdf1 BD2; CauBD2, 3200 nM, read-out: HTRF signal, normalized (Figure 5A data)): 5.12%
- remaining activity at 8 µM (C. auris Bdf1 BD2; CauBD2, 8000 nM, read-out: HTRF signal, normalized (Figure 5A data)): 5.06%
- IC50 (C. auris Bdf1 BD2; Fig 5A, four replicates, read-out: IC50 (μM) BD2, C. aur. Bdf1): 0.23 ± 0.02 µM
- remaining activity at 0.00524 µM (C. auris Bdf1 BD2; [4]): 90.6%
- remaining activity at 8 µM (C. auris Bdf1 BD2; [4]): 2.46%
